Usually Ki stands for a measure of affinity in units of concentration, obtained from inhibition or displacement. A lower Ki goes with a stronger hold on the target.

Results on 21 compounds are retold here after US9914732B2, “Diazabicyclo[4.3.1]decane derivatives for treatment of psychiatric disorders” (Max-Planck-Gesellschaft zur Forderung der Wissenschaften …, priority 2014, dated 2018).

One assay deals with N2a cells. Put plainly: N2a cellular assay (neurite outgrowth). Format: cell-based. The settings on record: N2a neuroblastoma cells, FIG. 1. Here is the method:
FK506 analogs have repeatedly been described as neuroprotective and […] agents in the prior arts.
Example 12: N2a Cellular Assay
At day one N2a cells were plated into 24-well plates with cover slips (pretreated with polylysine) at a density of 35,000 cells/well and cultured with DMEM (incl. FCS 10% and Pen/Strep 1%) for 24 h. Next, cells were transfected with 80 ng expression plasmids encoding Venus as well as 720 ng pRK5 (mock transfection) in a total volume of 500 μl starvation media containing different concentrations of compounds or DMSO for 36 h (media without FCS; induction of neurite outgrowth). Therefore media was removed and replaced by 400 μl DMEM (empty). Next an equivalent volume of plasmids were given to 50 μl OPTIMEM and incubated for 5 min at RT. Additionally 1.5 μl Lipofectamine 2000 was separately dissolved in 50 μl OPTIMEM. After 5 min both solutions (plasmids and Lipofectamine 2000 containing media) were combined and incubated again for another 20 min. After that 100 μl of this mixture was given to 400 μl media per well. (See also protocol of the provider—Life Technologies).
On the next day cells were washed with PBS and incubated for 30 min with 300 μl PFA (4%) and sucrose (5%) to fix cells. After fixation cells were washed three times, mounted onto microscope slides using 4 μl Vectashield (mounting media) and analyzed by fluorescence microscopy. […]

In another assay the target is T1, FKBP52 (Homo sapiens, UniProt Q02790).
T1 sequence (Q02790 50-138 limits assumed): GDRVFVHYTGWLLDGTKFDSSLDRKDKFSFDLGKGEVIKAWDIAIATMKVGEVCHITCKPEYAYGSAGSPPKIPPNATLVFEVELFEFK
Put plainly: Fluorescence polarization (FP) assay, binding to the FK506-binding domain of FKBP52. The conditions noted are these: FK506-binding domain of FKBP52 (FKBP52FK1), competition with fluorescent ligand 2b. In short, it runs like this:
(§1)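 Competitive FP with fluorescent ligand 2b at 20 nM (2× concentration) and FK1 domain at 280 nM (FKBP51) or 400 nM (FKBP52) in 20 mM HEPES pH 8, 0.01% Triton-X100. Anisotropy read after 30 min at room temperature (ex 485, em 535 nm), in duplicate; IC50 by four-parameter fit, Ki via Wang competitive equation.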

For the next assay, the target named is T2, FKBP51 (Homo sapiens, UniProt Q13451).
T2 sequence (Q13451 42-130 limits assumed): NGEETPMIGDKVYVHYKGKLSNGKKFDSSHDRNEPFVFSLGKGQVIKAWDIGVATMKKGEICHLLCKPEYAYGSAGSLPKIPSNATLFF
Kind of assay: Fluorescence polarization (FP) assay, binding to the FK506-binding domain of FKBP51. The settings on record: FK506-binding domain of FKBP51 (FKBP51FK1), competition with fluorescent ligand 2b. In short, it runs like this:
as §1

For `COc1ccc(OCCN2C[C@H]([C@H](O)CO)C3CCCC(C2=O)N3S(=O)(=O)c2cc(Cl)cc(Cl)c2)cc1OC` (stereo partly drawn) [Compound C2a, (1S,5S,6R)-10-((3,5-dichlorophenyl)sulfonyl)-5-(1,2-dihydroxyethyl)-3-(2-(3,4-dimethoxyphenoxy)ethyl)-3, 10-diazabicyclo[4.3.1]decan-2-one], in the assay with N2a cells, the neurite outgrowth entry was “potently enhanced neurite outgrowth”.

For the compound `C#CCN1C[C@H](COC)[C@H]2CCC[C@@H](C1=O)N2S(=O)(=O)c1nc2ccccc2[nH]1` [Compound N16, (1S,5S,6R)-10-((1H-benzo[d]imidazol-2-yl)sulfonyl)-5-(methoxymethyl)-3-(prop-2-yn-1-yl)-3,10-diazabicyclo[4.3.1]decan-2-one], the Ki on FKBP52 and on FKBP51 was 100 to 500 nM each time.

For `COC[C@H]1CN(Cc2cnn[nH]2)C(=O)[C@@H]2CCC[C@H]1N2S(=O)(=O)c1cccc(F)c1` [Compound N17, (1S,5S,6R)-3-((1H-1,2,3-triazol-5-yl)methyl)-10-((3-fluorophenyl)sulfonyl)-5-(methoxymethyl)-3,10-diazabicyclo[4.3.1]decan-2-one], the Ki at FKBP52 and at FKBP51 was no more than 100 nM throughout.

For `COC[C@H]1CN(Cc2cnn[nH]2)C(=O)[C@@H]2CCC[C@H]1N2S(=O)(=O)c1cc(Br)cc(Br)c1` [Compound N18, (1S,5S,6R)-3-((1H-1,2,3-triazol-5-yl)methyl)-10-((3,5-dibromophenyl)sulfonyl)-5-(methoxymethyl)-3,10-diazabicyclo[4.3.1]decan-2-one], the inhibitory constant (Ki) at FKBP52 and on FKBP51 was no more than 100 nM each time.

As to `COC[C@H]1CN(Cc2cnn[nH]2)C(=O)[C@@H]2CCC[C@H]1N2S(=O)(=O)c1cccc(C(N)=O)c1` [Compound N19, 3-(((1S,5S,6R)-3-((1H-1,2,3-triazol-5-yl)methyl)-5-(methoxymethyl)-2-oxo-3,10-diazabicyclo[4.3.1]decan-10-yl)sulfonyl)benzamide], the Ki at FKBP52 and on FKBP51 was no more than 100 nM throughout.

On to `COC[C@H]1CN(Cc2cnn[nH]2)C(=O)[C@@H]2CCC[C@H]1N2S(=O)(=O)c1cc(Br)cc(C(N)=O)c1` [Compound N20, 3-(((1S,5S,6R)-3-((1H-1,2,3-triazol-5-yl)methyl)-5-(methoxymethyl)-2-oxo-3,10-diazabicyclo[4.3.1]decan-10-yl)sulfonyl)-5-bromobenzamide], for which the Ki on FKBP52 and on FKBP51 was no more than 100 nM each time.

As to `COC[C@H]1CN(Cc2cnn[nH]2)C(=O)[C@@H]2CCC[C@H]1N2S(=O)(=O)c1cc(Cl)cc(C(N)=O)c1` [Compound N21, 3-(((1S,5S,6R)-3-((1H-1,2,3-triazol-5-yl)methyl)-5-(methoxymethyl)-2-oxo-3,10-diazabicyclo[4.3.1]decan-10-yl)sulfonyl)-5-chlorobenzamide], the Ki at FKBP52 and on FKBP51 was no more than 100 nM throughout.

Consider `COC[C@H]1CN(Cc2cnn[nH]2)C(=O)[C@@H]2CCC[C@H]1N2S(=O)(=O)c1ccc(NC(C)=O)c(Br)c1` [Compound N22, N-(4-(((1S,5S,6R)-3-((1H-1,2,3-triazol-5-yl)methyl)-5-(methoxymethyl)-2-oxo-3,10-diazabicyclo[4.3.1]decan-10-yl)sulfonyl)-2-bromophenyl)acetamide], for which the Ki at FKBP52 and at FKBP51 was no more than 100 nM each time.

On to `COC[C@H]1CN(Cc2cnn[nH]2)C(=O)[C@@H]2CCC[C@H]1N2S(=O)(=O)c1ccc(NC(C)=O)c(Cl)c1` [Compound N23, N-(4-(((1S,5S,6R)-3-((1H-1,2,3-triazol-5-yl)methyl)-5-(methoxymethyl)-2-oxo-3,10-diazabicyclo[4.3.1]decan-10-yl)sulfonyl)-2-chlorophenyl)acetamide], for which the Ki on FKBP52 and on FKBP51 was no more than 100 nM throughout.

With `COC[C@H]1CN(Cc2cnn[nH]2)C(=O)[C@@H]2CCC[C@H]1N2S(=O)(=O)c1cc(Cl)c(NC(C)=O)c(Cl)c1` [Compound N24, N-(4-(((1S,5S,6R)-3-((1H-1,2,3-triazol-5-yl)methyl)-5-(methoxymethyl)-2-oxo-3,10-diazabicyclo[4.3.1]decan-10-yl)sulfonyl)-2,6-dichlorophenyl)acetamide], the Ki at FKBP52 and on FKBP51 was no more than 100 nM throughout.

With `COC[C@H]1CN(Cc2cnn[nH]2)C(=O)[C@@H]2CCC[C@H]1N2S(=O)(=O)c1cccnc1` [Compound N25, (1S,5S,6R)-3-((1H-1,2,3-triazol-5-yl)methyl)-5-(methoxymethyl)-10-(pyridin-3-ylsulfonyl)-3,10-diazabicyclo[4.3.1]decan-2-one], the Ki at FKBP52 and at FKBP51 was no more than 100 nM each time.

Take `COC[C@H]1CN(Cc2cnn[nH]2)C(=O)[C@@H]2CCC[C@H]1N2S(=O)(=O)c1ccc(-c2ccccc2)nc1` [Compound N26, (1S,5S,6R)-3-((1H-1,2,3-triazol-5-yl)methyl)-5-(methoxymethyl)-10-((6-phenylpyridin-3-yl)sulfonyl)-3,10-diazabicyclo[4.3.1]decan-2-one]: the Ki at FKBP52 and on FKBP51 was no more than 100 nM each time.

`COC[C@H]1CN(Cc2cnn[nH]2)C(=O)[C@@H]2CCC[C@H]1N2S(=O)(=O)c1ccc(-c2ncccn2)cc1` [Compound N27, (1S,5S,6R)-3-((1H-1,2,3-triazol-5-yl)methyl)-5-(methoxymethyl)-10-((4-(pyrimidin-2-yl)phenyl)sulfonyl)-3,10-diazabicyclo[4.3.1]decan-2-one]: the Ki at FKBP52 and on FKBP51 was no more than 100 nM throughout.

Regarding `COC[C@H]1CN(Cc2cnn[nH]2)C(=O)[C@@H]2CCC[C@H]1N2S(=O)(=O)c1nc2ccccc2[nH]1` [Compound N28, (1S,5S,6R)-3-((1H-1,2,3-triazol-5-yl)methyl)-10-((1H-benzo[d]imidazol-2-yl)sulfonyl)-5-(methoxymethyl)-3,10-diazabicyclo[4.3.1]decan-2-one], the Ki on FKBP52 and at FKBP51 was no more than 100 nM throughout.

As to `COC[C@H]1CN(Cc2cnnn2Cc2ccccc2)C(=O)[C@@H]2CCC[C@H]1N2S(=O)(=O)c1cccc(F)c1` [Compound N30, (1S,5S,6R)-3-((1-benzyl-1H-1,2,3-triazol-5-yl)methyl)-10-((3-fluorophenyl)sulfonyl)-5-(methoxymethyl)-3,10-diazabicyclo[4.3.1]decan-2-one], the Ki at FKBP52 and on FKBP51 was 100 to 500 nM throughout.

Turning to `COC[C@H]1CN(Cc2cnnn2C(=O)c2ccccc2)C(=O)[C@@H]2CCC[C@H]1N2S(=O)(=O)c1cccc(F)c1` [Compound N31, (1S,5S,6R)-3-((1-benzoyl-1H-1,2,3-triazol-5-yl)methyl)-10-((3-fluorophenyl)sulfonyl)-5-(methoxymethyl)-3,10-diazabicyclo[4.3.1]decan-2-one], the Ki on FKBP52 and at FKBP51 was 100 to 500 nM in each case.

As for `COC[C@H]1CN(Cc2cnnn2S(=O)(=O)c2ccccc2)C(=O)[C@@H]2CCC[C@H]1N2S(=O)(=O)c1cccc(F)c1` [Compound N32, (1S,5S,6R)-10-((3-fluorophenyl)sulfonyl)-5-(methoxymethyl)-3-((1-(phenylsulfonyl)-1H-1,2,3-triazol-5-yl)methyl)-3,10-diazabicyclo[4.3.1]decan-2-one], the Ki at FKBP52 and on FKBP51 was 100 to 500 nM each time.

As to `COc1ccc(OCCN2CCC3CCCC(C2=O)N3S(=O)(=O)c2cc(Cl)cc(Cl)c2)cc1OC` (centres unmarked) [Ref. 1, reference compound], the Ki on FKBP52 and at FKBP51 was 1000 to 5000 nM in each case.

With `COc1ccc(OCCN2CCC3CCCC(C2=O)N3S(=O)(=O)c2ccc3ncsc3c2)cc1OC` (centres unmarked) [Ref. 2, reference compound], the Ki at FKBP52 and on FKBP51 was 1000 to 5000 nM throughout.

`COc1ccc(OCCN2CCC3CCCC(C2=O)N3S(=O)(=O)c2cc(Cl)c(O)c(Cl)c2)cc1OC` (centres unmarked) [Ref. 3, reference compound]: the Ki at FKBP52 and at FKBP51 was 1000 to 5000 nM in each case.

Regarding `O=C1NCCC2CCCC1N2S(=O)(=O)c1ccc2sc(=O)[nH]c2c1` (centres unmarked) [Ref. 4, reference compound], the Ki at FKBP52 and on FKBP51 was greater than 5000 nM throughout.
